From patent publication US8895754B2, “Process to make UV radiation absorbing 2-phenyl-1,2,3,-benzotriazoles” (DSM IP Assets B.V., priority 2010, dated 2014)

Experiment: Determination of the solubility in cosmetic solvents
Type: physicochemical
Conditions: saturated solution stirred 7 days at room temperature, concentration by HPLC; for solubility Finsolv TN: C12-15 Alkylbenzoate; for solubility Myritol 318: Capric/Caprylic Triglyceride
Description: 1.5 g of a cosmetic solvent (Capric/Caprylic Triglyceride (Mygliol 318) and C12-15 Alkylbenzoate (Finsolv TN)) is saturated with the respective Benzotriazol-derivative by adding 0.2 g portions while stirring at room temperature. The saturated solution is stirred for 7 days at room temperature. 1 ml of the supernatant is centrifuged and filtered in order to obtain a clear solution. The concentration of the Benzotriazol-derivative is determined by means of HPLC.

| SMILES | solubility Finsolv TN [%] | solubility Myritol 318 [%] |
| --- | --- | --- |
| Cc1cc(COCCC(C)C)c(O)c(-n2nc3ccccc3n2)c1 [Example 4, 2-(2H-Benzotriazol-2-yl)-6-(3-methyl-butoxymethyl)-4-methyl-phenol] | 37 | 36 |
| Cc1cc(COCCC(C)C)c(O)c(-n2nc3ccc(Cl)cc3n2)c1 [Example 6, 2-(5-Chloro-2H-benzotriazol-2-yl)-4-methyl-6-(3-methyl-butoxymethyl)-phenol] | 19 | 12 |
| Cc1cc(COCc2cc(C)cc(-n3nc4ccccc4n3)c2O)c(O)c(-n2nc3ccccc3n2)c1 [Example 9, 3,3′-Bis(2H-benzotriazol-2-yl)-2,2′-dihydroxy-5,5′-dimethylbenzyl Ether] | 0.02 | 0.01 |

Next, values leading:

| solubility Finsolv TN [%] | solubility Myritol 318 [%] | SMILES |
| --- | --- | --- |
| 42 | 24 | CCCCC(CC)C(=O)OCc1cc(C)cc(-n2nc3ccccc3n2)c1O (stereo not shown) [Example 7, 2-Ethyl-hexanoic Acid 3-(2H-benzotriazol-2-yl)-2-hydroxy-5-methyl-benzyl Ester] |
| 8 | 6 | Cc1cc(COC(=O)CC(C)C)c(O)c(-n2nc3ccccc3n2)c1 [Example 8, 3-Methyl-butyric Acid 3-(2H-benzotriazol-2-yl)-2-hydroxy-5-methyl-benzyl Ester] |
